Measured values from US6423714B1, “Cyclohexene derivatives useful as antagonists of the motilin receptor” (Ortho McNeil-Pharmaceutical, Inc.., priority 2000, dated 2002).

Target: T1, motilin receptors located on the colon of mature rabbits (Oryctolagus cuniculus, UniProt G1T803)
T1 construct: The muscle tissues were homogenized in 10 volumes of buffer; from tissue; host or cells: rabbit colon smooth muscle, crude membrane homogenate
Test: Competition with radiolabeled (I125) porcine motilin for motilin receptors in rabbit colon membranes
Type: binding
Details: @ 50 nM; I125 motilin (porcine) 25-40 pM; rabbit colon smooth muscle membranes; 30 min at 30° C.
Experimental: The compounds of the invention were tested for their ability to compete with radiolabeled motilin (porcine) for the motilin receptors located on the colon of mature rabbits. The colon from mature New Zealand rabbits was removed, dissected free from the mucosa and serosa layers, and diced into small pieces. The muscle tissues were homogenized in 10 volumes of buffer (50 mM Tris-Cl, 10 mM MgCl2, 0.1 mg/mL bactracin, and 0.25 mM Peflabloc, pH 7.5) in a Polytron (29,000 rpm, 4×15 seconds). The homogenate was centrifuged at 1000×g for 15 min. and the supernatant discarded. The pellet was washed twice before being suspended in homogenizing buffer. This crude homogenate was then passed first through a 19 gauge needle then a 23 gauge needle to further suspend the material and stored at −80° C. […] The pellet was counted in the gamma counter to determine the percentage of […] motilin and thereby the percent inhibition of the test compound.
% inhibition was determined for some compounds by standard techniques: […]

T1 sequence (G1T803 1-400): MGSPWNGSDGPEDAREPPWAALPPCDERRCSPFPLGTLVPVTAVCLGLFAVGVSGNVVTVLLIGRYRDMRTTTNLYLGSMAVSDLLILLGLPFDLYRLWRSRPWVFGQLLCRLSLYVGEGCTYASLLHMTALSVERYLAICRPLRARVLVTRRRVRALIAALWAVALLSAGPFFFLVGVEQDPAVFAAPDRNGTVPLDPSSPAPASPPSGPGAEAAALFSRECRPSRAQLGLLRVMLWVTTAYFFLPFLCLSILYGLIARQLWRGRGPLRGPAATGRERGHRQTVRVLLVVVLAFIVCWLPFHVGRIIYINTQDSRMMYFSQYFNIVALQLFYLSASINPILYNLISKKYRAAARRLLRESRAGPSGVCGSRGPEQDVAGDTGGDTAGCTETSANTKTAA

Molecule	% inhibition [%]
3-Benzyl-3-trichloroacetamido-1-N[(3-(2-morpholinoethoxy)phenyl)amino]methylcyclohexene [Example 7]	59
O=C(Nc1ccccc1)N(CC1=CC(Cc2ccccc2)(NC(=O)C(Cl)(Cl)Cl)CCC1)c1cccc(OCCN2CCOCC2)c1 (centres unmarked) [Example 6, 3-Benzyl-3-trichloroacetamido-1-(N-phenylaminocarbonyl)-N-[(3-(2-morpholinoethoxy)phenyl)amino]methylcyclohexene]	62
